# Experimental data published in BigSolDB 2.1.
compound,measurement,setting,value
c1ccc(-n2c(-c3cc(-c4nc5ccccc5n4-c4ccccc4)cc(-c4nc5ccccc5n4-c4ccccc4)c3)nc3ccccc32)cc1,solubility (mole fraction),"in DMSO, 293.15 K",0.00119
same,solubility (mole fraction),"in DMSO, 303.15 K",0.00151
same,solubility (mole fraction),"in DMSO, 313.15 K",0.0023
same,solubility (mole fraction),"in DMSO, 323.15 K",0.0032
same,solubility (mole fraction),"in THF, 283.15 K",0.00159
same,solubility (mole fraction),"in THF, 293.15 K",0.00202
same,solubility (mole fraction),"in THF, 303.15 K",0.00277
same,solubility (mole fraction),"in THF, 313.15 K",0.0042
same,solubility (mole fraction),"in THF, 323.15 K",0.00451
same,solubility (mole fraction),"in acetonitrile, 283.15 K",0.000114
same,solubility (mole fraction),"in acetonitrile, 293.15 K",0.000135
same,solubility (mole fraction),"in acetonitrile, 303.15 K",0.000149
same,solubility (mole fraction),"in acetonitrile, 313.15 K",0.000188
same,solubility (mole fraction),"in acetonitrile, 323.15 K",0.000232
same,solubility (mole fraction),"in chlorobenzene, 283.15 K",0.00588
same,solubility (mole fraction),"in chlorobenzene, 293.15 K",0.00711
same,solubility (mole fraction),"in chlorobenzene, 303.15 K",0.00857
same,solubility (mole fraction),"in chlorobenzene, 313.15 K",0.00941
same,solubility (mole fraction),"in chlorobenzene, 323.15 K",0.0111
same,solubility (mole fraction),"in chloroform, 283.15 K",0.00762
same,solubility (mole fraction),"in chloroform, 293.15 K",0.00839
same,solubility (mole fraction),"in chloroform, 303.15 K",0.0092
same,solubility (mole fraction),"in chloroform, 313.15 K",0.01
same,solubility (mole fraction),"in chloroform, 323.15 K",0.0113
same,solubility (mole fraction),"in cyclohexane, 283.15 K",2e-07
same,solubility (mole fraction),"in cyclohexane, 293.15 K",4e-07
same,solubility (mole fraction),"in cyclohexane, 303.15 K",6e-07
same,solubility (mole fraction),"in cyclohexane, 313.15 K",1.1e-06
same,solubility (mole fraction),"in cyclohexane, 323.15 K",1.9e-06
same,solubility (mole fraction),"in ethanol, 283.15 K",0.000357
same,solubility (mole fraction),"in ethanol, 293.15 K",0.000437
same,solubility (mole fraction),"in ethanol, 303.15 K",0.000542
same,solubility (mole fraction),"in ethanol, 313.15 K",0.000716
same,solubility (mole fraction),"in ethanol, 323.15 K",0.000932
same,solubility (mole fraction),"in ethyl acetate, 283.15 K",0.000711
same,solubility (mole fraction),"in ethyl acetate, 293.15 K",0.000777
same,solubility (mole fraction),"in ethyl acetate, 303.15 K",0.000921
same,solubility (mole fraction),"in ethyl acetate, 313.15 K",0.0012
same,solubility (mole fraction),"in ethyl acetate, 323.15 K",0.00174
same,solubility (mole fraction),"in isopropanol, 283.15 K",1.11e-05
same,solubility (mole fraction),"in isopropanol, 293.15 K",2.18e-05
same,solubility (mole fraction),"in isopropanol, 303.15 K",3.04e-05
same,solubility (mole fraction),"in isopropanol, 313.15 K",4.51e-05
same,solubility (mole fraction),"in isopropanol, 323.15 K",6.88e-05
same,solubility (mole fraction),"in methanol, 283.15 K",0.000236
same,solubility (mole fraction),"in methanol, 293.15 K",0.000259
same,solubility (mole fraction),"in methanol, 303.15 K",0.00029
same,solubility (mole fraction),"in methanol, 313.15 K",0.000307
same,solubility (mole fraction),"in methanol, 323.15 K",0.000361
same,solubility (mole fraction),"in n-butanol, 283.15 K",0.00117
same,solubility (mole fraction),"in n-butanol, 293.15 K",0.00132
same,solubility (mole fraction),"in n-butanol, 303.15 K",0.00155
same,solubility (mole fraction),"in n-butanol, 313.15 K",0.00167
same,solubility (mole fraction),"in n-butanol, 323.15 K",0.00192
same,solubility (mole fraction),"in n-hexane, 283.15 K",3.9e-06
same,solubility (mole fraction),"in n-hexane, 293.15 K",5.8e-06
same,solubility (mole fraction),"in n-hexane, 303.15 K",9.5e-06
same,solubility (mole fraction),"in n-hexane, 313.15 K",1.46e-05
same,solubility (mole fraction),"in n-hexane, 323.15 K",2.22e-05
